Results taken from patent publication US20250302846A1, “ANTIBIOTIC COMPOSITION AND METHODS OF USE THEREOF” (THE REGENTS OF THE UNIVERSITY OF COLORADO A BODY CORPORATE, priority 2022, published 2025).
Values after ≈ are worked out from the molar mass of the structure shown. Values joined by “and” are separate entries in the source; they are usually repeats but may differ in a detail not shown here. Equal values may be shown once. Read-outs that look alike come from different tables or passages of the source.

Assays:
[1] = test system: S. Typhimurium SL1344 or 14028 in RAW 264.7 cells; assay: CFU assay in infected RAW 264.7 macrophages; format: cell-based; settings: for IC50: Salmonella enterica, TYPHIMURIUM
Protocol: FIG. 1A-D. D66 is a small molecule that prevents S. Typhimurium replication and/or survival in macrophages. A). Structure of D66. B) RAW264.7 macrophage-like cells were infected with S. Typhimurium harboring a chromosomal sifB: : gfp reporter, treated with DMSO or D66 at two hours after infection, and monitored for bacterial accumulation (GFP+Macrophage Area) over 16 hours using the SAFIRE (Screen for Anti-infectives using Fluorescence microscopy of Intracellular Enterobacteriaceae) assay. The IC50 value is indicated. Mean and SD of biological duplicates with technical duplicates across 9 dilutions of D66. C, D) CFU assays were performed with RAW264.7 or HeLa cells infected with S. Typhimurium SL1344 or 14028 for two hours and treated for 16 hours with DMSO or 1.5-fold dilutions of D66, prior to lysis and plating for CFU. Symbols on the Y-axes are the CFU value from DMSO-treated samples. The IC50 values are indicated. Mean and SEMs of biological triplicates with technical duplicates across 8 dilutions of D66.
CFU assays were performed with RAW 264.7 cells seeded as above or with Hela cells (ATCC CCL-2) seeded at 1x10^4 cells per 96-well. Cells were infected as described above with either S. Typhimurium SL1344 or 14028, as indicated at an approximate MOI of 30 bacteria per RAW 264.7 cell and 150 bacteria per HeLa cell. Plates were centrifuged and gentamicin treated as above. At 18 hours after infection, wells were washed twice with PBS and lysed with 30 μL 0.1% Triton X-100 in PBS for five minutes. Lysed cells were plated to L-agar and enumerated for CFU.

[2] = test system: S. aureus FDA209; assay: Growth inhibition in broth (MIC95); format: cell-based; settings: Staphylococcus aureus
Protocol: FIG. 8A-B. […] inhibits the growth of Gram-positive bacteria in broth. A) Dose response curves monitoring staphylococcal and B. subtills growth in the presence of […] from an OD600 of 0.01, normalized to growth in 2% DMSO after 18 hours. Mean and SEM of at least three biological replicates performed with technical triplicates. B) Table of […] concentrations that inhibit growth. For comparison, S. Typhimurium is included.

[3] = test system: RAW 264.7 cells; assay: LDH release assay; format: cell-based
Protocol: FIG. 5A-C. […] Mice were euthanized 48 hours after infection. […] Significance was determined by Mann-Whitney.
LDH assays: An LDH-cytotoxicity assay kit (Abcam ab65393) was used according to the manufacturer's instructions. RAW 264.7 cells were seeded and remained uninfected or with infected as described for the CFU assay with SL1344.

[4] = Solubility limit in assay medium; format: physicochemical; settings: bacterial growth broth (LB or MHB), 37 °C, plasma or biological fluid, kinetic from dmso stock, final DMSO at or below 2%
[5] = test system: RAW 264.7 cells; assay: Mitochondrial membrane potential with TMRM; settings: uninfected RAW 264.7 cells; D66 first two hours; CCCP 7 μM
[6] = test system: S. Typhimurium; assay: Propidium iodide membrane barrier assay; format: cell-based
Protocol: FIG. 3A-F. D66 rapidly perturbs the bacterial cytoplasmic membrane with minor disruption of barrier function. Mid-log phase S. Typhimurium cells grown in LB with 0.5 μg/mL PMB were used for all experiments. A) Cell membrane potential was monitored with the fluorescent dye DiSC3 (5). Cells were treated at time 0 with DMSO, JD1 [70 μM], or D66. Data were normalized to DMSO at time 0 and corrected for the quenching effect of D66 (FIG. 6A, B) B) Cell membrane permeability was monitored by PI fluorescence. Cells were treated at time 0 with DMSO, SDS [0.005%] or D66. Samples were processed at the time points shown. A one-way ANOVA with a Dunnet's multiple comparison test, * P<0.005. C-F) Growth curves and kill-curves of cells treated at time 0 with either DMSO or D66. Culture aliquots were monitored for OD600 (C, E) or plated for enumeration of CFU (D, F). Data are presented as fold change. Mean and SEM of three biological replicates with technical triplicates are shown in all panels.
Propidium iodide membrane barrier assays: Compound, DMSO, or SDS was added to mid-log phase cells to the desired concentration, and cultures were sampled at 0, 10, 15, 20, 30 and 45 minutes. Five minutes before harvesting, PI [10 μg/mL] (Life Technologies) was added. Cells were pelleted, washed twice, resuspended in PBS, and monitored (ex535/em617 nm) using a BioTek Synergy H1 plate reader.

[7] = test system: staphylococcal strains; assay: MIC95 quoted for staphylococcal persister and biofilm experiments; format: cell-based; settings: staphylococcal strains; read-out: MIC95
Protocol: A-D) Overnight cultures of the indicated strains were treated at time 0 with DMSO, ciprofloxacin [4 μg/mL], vancomycin [10 μg/mL], or the corresponding MIC95 concentration of D66 (1x MIC95=130 μM, 49 μg/mL). Cultures were plated for enumeration of CFU at time points indicated. Mean and SEM of three biological replicates. E) RAW 264.7 macrophage-like cells and HeLa cells were infected with S. aureus USA300, at MOIs of 0.5 and 2.5, respectively. Cells were treated two hours after infection with DMSO (gray circle on Y axis), or dilutions of D66 from 40 μM. After 8 hours of infection, cells were lysed and plated for enumeration of CFU. Mean and SEM of biological duplicates performed with technical triplicates each with six dilutions of D66. The IC50 value that was calculatable is indicated.
Biofilm formation was monitored after 18 hours in TSB with subinhibitory concentrations of DMSO, rifampin (1x MIC95=0.05 μg/mL), vancomycin (1x MIC95=1 μg/mL), or D66 (1x MIC95=130 μM). A-D) Crystal violet staining for accumulated biofilm mass measured at A595. Mean and […]

O=C(Nc1cc(Cl)cc(Cl)c1)N1CCCN(Cc2ccccc2)CC1 [D66]
IC50 ([1]; RAW264.7, 16 h, S. Typhimurium 14028 in macrophages, treated 16 hours, read-out: CFU IC50): 4.9 µM
IC50 ([1]; RAW264.7, 16 h, S. Typhimurium SL1344 in macrophages, treated 16 hours, read-out: CFU IC50): 7.7 µM
IC50 ([1]; RAW264.7, as quoted for dose selection, read-out: IC50 of D66 against S. Typhimurium in macrophages): ~7.8 µM
CFU reduction ([1]; macrophages): > 1000 fold
MIC [2]: 130 µM (≈ 49.2 µg/mL)
LDH release ([3]; RAW 264.7 cells infected with S. Typhimurium SL1344, 16 hours): reduced the percentage of cells that released LDH in a dose-dependent manner
LDH release ([3]; uninfected RAW 264.7 cells, 16 hours): little effect on LDH release
solubility [4]: ~150 µM (≈ 56.7 µg/mL)
TMRM fluorescence (mitochondrial membrane potential) [5]: increased TMRM signal in a dose-dependent manner
time elapsed prior to an increase in PI fluorescence ([6]; LB with PMB [0.5 μg/mL], D66 at 1x MIC95): 45 min
time of treatment after which PI signal increased ([6]; LB with PMB [0.5 μg/mL], D66 at 2x MIC95, SDS [0.005%] positive control): 10 min
PI signal increase ([6]; at 1x MIC, within 30 minutes): two-fold
MIC [7]: 130 µM and 49 µg/mL
